Literature values in patent US20230233494A1, “BIOAVAILABLE SUGAR-BASED DICLOFENAC FORMULATIONS” (APR Applied Pharma Research SA, priority 2020, published 2023).
Counter-ions that a name gives are not always drawn.

Conditions: at acidic pH

## O=C(O)Cc1ccccc1Nc1c(Cl)cccc1Cl [diclofenac potassium, [2-(2,6-dichlorophenyl)amino]benzeneacetate, potassium salt]
  Solubility: sparingly soluble
